Assay results: patent US20130345249A1, “Formulations for the prevention and treatment of Wolbachia-related disease” (priority 2011, published 2013)

Tests used:
[1] = system: Wolbachia; test: Microscopy-based high-throughput screen in Wolbachia-infected Drosophila tissue culture cells; format: cell-based; conditions: 100 uM in media, 3 days incubation
Protocol: In collaboration with the microscope company Molecular Devices, we optimized journaling software that analyzes the level of cytoplasmic DAPI (Wolbachia) fluorescence per cell in all wells of the plate. […] In this pilot, compounds were added to Wolbachia-infected cells at a final concentration of 100 uM in media and allowed to incubate for 3 days. Cells were then fixed, stained, imaged, and analyzed by automated machinery.

[2] = system: Brugia malayi; test: Brugia malayi drug feeding assay (worm mortality); format: in vivo
Excerpt: Small molecules of interest found by the primary tissue culture screen must be tested in animal models to determine their relevance to Wolbachia in vivo. Because Wolbachia are vital endosymbionts of Brugia malayi worms that cause Elephantiasis, the next important step was to validate whether compounds found in the high-throughput screen could affect the viability of those worms. To assay this, we performed a pilot feeding assay by distributing Brugia malayi into 12-well plates containing tissue culture media and different compounds added to a final concentration of 100 uM. […] In this feeding assay, we observed that worms fed with pararosanaline pamoate ceased movement within 2 hours, whereas all other treatments took substantially longer to affect the worms (FIG. 3). Our preliminary dose-response tests of pararosanaline pamoate indicate that the lethal feeding dose lies between 25 uM and 10 uM.

[3] = system: Wolbachia; test: Wolbachia titer in ovarian tissues of fed D. melanogaster (confocal microscopy, image-based quantification); format: in vivo, Wolbachia (in Drosophila melanogaster)
Protocol: As the next validation step, it was important to determine whether the compounds found in our screen can cure a host of Wolbachia while also permitting host viability. To investigate this, we first performed a feeding assay using Wolbachia-infected Drosophila melanogaster flies. Flies were provided with fly food containing pararosanaline pamoate at concentrations of 100 uM or less, and viability was scored over time. […] To then determine whether the treatment affected the quantity of Wolbachia carried by the D. melanogaster host, we fed pararosaniline pamoate to Wolbachia-infected fruit flies for 3 days and analyzed Wolbachia titer in ovarian tissues. This was performed through use of confocal microscopy and image-based bacterial quantification software.

[4] = system: Wolbachia; test: Confocal imaging of Wolbachia in treated Brugia malayi worms; format: in vivo

| SMILES | cytoplasmic DAPI (Wolbachia) fluorescence per cell / hit in tissue culture screen [1] | cytoplasmic DAPI (Wolbachia) fluorescence per cell / hit in tissue culture screen ([1]; listed as pararosanaline pamoate) | time until worms ceased movement ([2]; 100 uM in tissue culture media, 12-well plates) | worm viability after treatment (FIG. 3) ([2]; drug feeding assay) | Wolbachia titer in Drosophila oocytes (FIG. 5) ([3]; average quantity within a single focal plane of oocytes) | Wolbachia titer relative to control levels ([3]; fed for 3 days, ovarian tissues (oocytes), preliminary) | number of Wolbachia carried by host, worms killed by drug vs untreated worms [4] |
| --- | --- | --- | --- | --- | --- | --- | --- |
| CC(C)(C)CC(C)(C)c1ccc(O)c(Cc2ccc(Cl)cc2Cl)c1 [Clofoctol] | identified by the screening methods of the invention | – | – | – | – | – | – |
| COC(=O)[C@H]1[C@H]2C[C@H]3c4[nH]c5cc(OC)ccc5c4CCN3C[C@H]2C[C@@H](OC(=O)c2cc(OC)c(OC)c(OC)c2)[C@@H]1OC [Isoreserpine] | identified by the screening methods of the invention | – | – | – | – | – | – |
| N=C1C=CC(=C(c2ccc(N)cc2)c2ccc(N)cc2)C=C1 [Pararosaniline Pamoate] | identified by the screening methods of the invention | found in the pilot tissue culture screen | ≤ 2 h | Inviable | reduced | 60% | no visible difference |
| Cc1ncc(CO)c(CO)c1O.Cl [pyroxidine HCl] | found in the pilot tissue culture screen | – | – | – | – | – | – |
